According to US9987237B2, “Methods and devices for using isoperillyl alcohol” (NEONC TECHNOLOGIES INC., priority 2010, dated 2018):

How the values were obtained:
Kras = test: Western blot for Kras expression in U251 glioma cells; assay type: cell-based, human; details: 500 μM, 24 hours
Experimental: U251 glioma cells were treated with 500 μM Sigma POH, GLP POH or iso-POH (isoPOH65, isoPOH79) for 24 hours, then Western blot was performed.

[1] = test system: glucose-regulatory protein 78 (GRP-78) and the apoptosis marker CHOP; test: Western blot for ER stress markers in U251 cells; assay type: cell-based, human; details: U251 TMZ-sensitive and TMZ-resistant (U251-TR1, U251-TR2) cells, 1.5 mM, 18 hours
Experimental: U251 TMZ-sensitive and TMZ-resistant (U251-TR1, U251-TR2) cells were treated with Sigma POH (1.5 mM) or GLP POH (1.5 mM) for 18 hours, then Western blot was performed.

U251 human glioma cells = test: MTT cytotoxicity assay, U251 glioma cells; assay type: cell-based
Excerpt: (§1) J. of Immunological Methods 65: 55 63, 1983. The cytoxicity of the present compound may be studied by colony formation assay. […] Invasion inhibition may be studied by Boyden chambers. In this assay a layer of reconstituted basement membrane. […] Sigma POH is the POH purchased from Sigma Chemicals having a purity of about 96%. […] KWH0744 is the crude POH purchased from Wako having a purity of about 89.5%. […] In vitro cytotoxicity of iso-POH in temozolomide-sensitive or temozolomide-resistant cells were also studied. […] Similarly.

[2] = test system: A172 temozolomide-resistant cells; test: MTT cytotoxicity assay, A172 temozolomide-resistant cells; assay type: cell-based, human; details: 48 hours, FIG. 4B
Excerpt: (§2) J. of Immunological Methods 65: 55 63, 1983. The cytoxicity of the present compound may be studied by colony formation assay. […] Invasion inhibition may be studied by Boyden chambers. In this assay a layer of reconstituted basement membrane. […] In vitro cytotoxicity of iso-POH in temozolomide-sensitive or temozolomide-resistant cells were also studied. […] Similarly.

LN229 human glioma cells = test: MTT cytotoxicity assay, LN229 glioma cells; assay type: cell-based
Excerpt: as §1

U87 human glioma cells = test: MTT cytotoxicity assay, U87 glioma cells; assay type: cell-based; details: U87 temozolomide sensitive, 48 hours, FIG. 7A
Excerpt: as §2

[3] = test system: U87 temozolomide-resistant cells; test: MTT cytotoxicity assay, U87 temozolomide-resistant cells; assay type: cell-based, human; details: 48 hours, FIG. 7B
Excerpt: as §2

A172 human glioma cells = test: MTT cytotoxicity assay, A172 glioma cells; assay type: cell-based
Excerpt: as §1

[4] = test system: U251 temozolomide-resistant cells; test: MTT cytotoxicity assay, U251 temozolomide-resistant cells; assay type: cell-based, human; details: 0 mM-3 mM
Excerpt: as §2

[5] = test system: LN229 temozolomide-resistant cells; test: MTT cytotoxicity assay, LN229 temozolomide-resistant cells; assay type: cell-based, human; details: 48 hours, FIG. 6B
Excerpt: as §2

`C=C(C)[C@@H]1CC=C(CO)CC1` [Sigma POH, perillyl alcohol] was tested, and the Kras expression (Kras) was “decreased Kras expression”, the “endoplasmic reticulum (ER) stress” value [1] was “increased endoplasmic reticulum (ER) stress” and the “expression of glucose-regulatory protein 78 (GRP-78)” value [1] was “increased expression”. The “expression of the apoptosis marker CHOP” value [1] was “increased expression”.
`CC(C)=C1CC=C(CO)CC1` [iso-POH, (4-isopropylidene cyclohex-1-enyl)methanol] was tested, and the Kras expression (Kras) was “decreased Kras expression”, the “cytotoxicity (MTT)” value (U251 human glioma cells; TMZ sensitive U251, 24 hours, 0 mM-3 mM, FIG. 8A) was “greater cytotoxicity” and the “cytotoxic response (MTT)” value (U251 human glioma cells; U251 temozolomide-sensitive, 48 hours, FIG. 5A) was “greatest response”. For the same compound, the “cytotoxicity (MTT)” value (U251 human glioma cells; U1251 human glioma cells, FIG. 2, versus POH of different purity) was “much better cytotoxicity than POH with different purity”, the “cytotoxic response (MTT)” value [2] was “response pattern was also seen” and the “cytotoxicity (MTT)” value (LN229 human glioma cells; LN229 human glioma cells, FIG. 1, versus POH of different purity) was “much better cytotoxicity than POH with different purity”. For the same compound, the “cytotoxic response (MTT)” value (LN229 human glioma cells; LN229 temozolomide sensitive, 48 hours, FIG. 6A) was “same response”, the “cytotoxic response (MTT)” value (U87 human glioma cells) was “greatest response” and the “endoplasmic reticulum (ER) stress” value [1] was “increased ER stress”. For the same compound, the “cytotoxic response (MTT)” value [3] was “greatest response”, the “cytotoxicity (MTT)” value (A172 human glioma cells; A172 human glioma cells, FIG. 3, versus POH of different purity) was “much better cytotoxicity than POH with different purity” and the “cytotoxic response (MTT)” value (A172 human glioma cells; A172 temozolomide-sensitive, 48 hours, FIG. 4A, compared to GLP POH and Sigma POH) was “greatest cytotoxic response”. For the same compound, the “cytotoxicity (MTT)” value ([4]; U251-TR1, 24 hours, FIG. 8C) was “greater cytotoxicity”, the “cytotoxicity (MTT)” value ([4]; U251-TR2, 24 hours, FIG. 8B) was “greater cytotoxicity” and the “cytotoxic response (MTT)” value [5] was “same response”.
